# Measurements taken from patent US20220233624A9, “ANTI-CANCER AND ANTI-PROLIFERATIVE COMPOSITIONS, AND METHODS FOR THEIR USE IN TREATING CANCER” (Natreon, Inc., priority 2020, published 2022).
# “And” between values parts separate entries of the source, which are not always exact repeats. Identical values can stand only once. Like-named read-outs stand apart in the source and are kept apart here.
# What was measured:
# [1] = tested on: AML (Acute myeloid leukemia) PDCs, M4 subtype (SB 33866); experiment: Anti-proliferation assay on AML PDCs; format: cell-based, human; conditions: for Inhibitory Concentration IC75 / Inhibitory Concentration IC25 / IC50: AML cells (M4); for Inhibitory Concentration IC25: calculated using IC50 and hill slope; for IC50: read-out: Inhibitory Concentration IC50; for inhibition at 10 µM: assay drug control @ 10 uM
# Procedure: Anti-proliferation assays were performed on 6 types of primary patient-derived cancer cells (PDCs) from 6 different human donors, as described in Table 1:
# Tests were performed in 384-well plates (24×16), using 1250 to 10,000 cells/well depending on the size and proliferation rate of different PDCs, in 30 ul of culture media (DMEM/F12 with serum and growth factors), with control wells set aside on each plate for media alone (4 wells), untreated PDCs (4 wells), and for PDCs treated with 10 ul of a known anti-cancer drug as a control. […] The outermost rows/columns of the plates were filled with PBS (pH 7.4) to avoid an edge-effect and were considered as blanks.
# Standardized aqueous extracts identified in Table 2 were prepared in main stock solutions by dissolving 1 mg of extract in 1 ml PBS (phosphate-buffered saline, pH 7.4).
# Anti-Proliferation Assay Protocol: 30 ul of cells were plated at the density of 1250 to 10,000 cells/well. The plate was incubated in a CO2 incubator for 0/N incubation for 24 hours. […] Final assay concentrations of made from stock solutions of standardized aqueous extracts identified in Table 2 were 100 ug/ml, 30 ug/ml, and 10 ug/ml. Since 10 ul extract was added to 30 ul of cell suspension, it diluted 4 times, so to maintain the final assay concentrations, 4× concentrated extract solutions (400 ug/ml, 120 ug/ml, and 40 ug/mo) were prepared from main stock (1 mg/ml) and added to the plate. In all experiments, 10 ul of 4 times concentrated stock (4×) was added to wells containing 30 ul of cell suspension to achieve final assay concentrations at 1X.
# Once extracts were added to incubated cells and mixed gently, the plate was given a brief spin and incubated in the CO2 incubator for 72 hours. The plate was removed from the incubator and 10 ul of detection reagent (CellTiterGlo®; Promega Corporation, Wisconsin, USA) added to each well of the 384 well plate. The plate was incubated (10 min) and luminescence counts measured, with luminescence produced proportional to the number of viable (living, metabolically active) cells for each assay. The assay described above is a two-dimensional (2D) assay.
# In this Example, AML drugs were used as disease specific controls.
# As discussed above in Example I, 6 extracts (Ayuflex®, Capros®, Phyto-BGS®, PrimaVie®, Sensoril®, and Ayuric®) were tested on AML PDC-SB cells (33866, M-4 type, subject) at 3 concentrations: 100 ug/ml, 30 ug/ml, and 10 ug/ml.
# [2] = tested on: AML cell line HL60; experiment: Anti-proliferation assay on HL60 AML cells; format: cell-based; conditions: for IC25 / IC75: potential dosing for further experiments
# Procedure: 2500 cells were plated per well in 384 well plates. […] CellTiter Glo was used as a detection reagent. Extracts were incubated with the AML HL60 cells for 72 hours.
# [3] = tested on: Breast Cancer PDCs, ER/PR+ Her2 equivocal (HR+); experiment: Anti-proliferation assay on breast cancer HR+ PDCs; format: cell-based, human; conditions: drug alone @ 10 uM; for inhibition at 10 µM: Homo sapiens
# Procedure: (§1) The outermost rows/columns of the plates were filled with PBS (pH 7.4) to avoid an edge-effect and were considered as blanks. Standardized aqueous extracts identified in Table 2 were prepared in main stock solutions by dissolving 1 mg of extract in 1 ml PBS (phosphate-buffered saline, pH 7.4). […] The plate was incubated in a CO2 incubator for 0/N incubation for 24 hours. […] Once extracts were added to incubated cells and mixed gently, the plate was given a brief spin and incubated in the CO2 incubator for 72 hours. The plate was removed from the incubator and 10 ul of detection reagent (CellTiterGlo®; Promega Corporation, Wisconsin, USA) added to each well of the 384 well plate. […] The assay described above is a two-dimensional (2D) assay.
# [4] = tested on: Breast Cancer PDCs, ER/PR− Her2+ (Her2+); experiment: Anti-proliferation assay on breast cancer Her2+ PDCs; format: cell-based, human; conditions: drug alone @ 10 uM; for inhibition at 10 µM: Homo sapiens
# Procedure: as §1
# [5] = tested on: Glioma SB 32833 Glioblastoma Grade IV patient derived cells; experiment: Anti-proliferation assay on glioma PDCs SB 32833; format: cell-based; conditions: Homo sapiens; for inhibition at 10 µM: drug @ 10 uM; for inhibition at 100 µM: Temozolomide @ 100 uM
# Procedure: The anti-cancer activity of AyuFlex®, Capros®, and Ayuric® was further tested on two other glioma PDCs taken from 2-3 different subjects (SB 6129, SB 32833 (person)). […] Also, the anti-cancer activity of AyuFlex®, Capros®, and Ayuric® was further tested on existing glioblastoma cell line U87 MG, to allow comparisons with other compositions known in the art. AyuFlex®, Capros®, and/or Ayuric® were incubated with the new PDC lines and the U87 MG cell line for 72 hours, as described in Example I above.
# Table 68 relates to FIG. 31, a graph showing the efficacy of AyuFlex®, Capros®, and/or Ayuric® on Glioma SB 32833 Glioblastoma Grade IV patient derived cells, in a combination study.
# [6] = tested on: Breast Cancer PDCs, Triple negative (TN), SB 36344; experiment: Anti-proliferation assay on breast cancer TN PDCs; format: cell-based, human; conditions: drug alone @ 10 uM; for inhibition at 10 µM: Homo sapiens
# Procedure: as §1
# [7] = tested on: Glioma PDCs (Glioblastoma Grade IV); experiment: Anti-proliferation assay (CellTiterGlo, 72 h) on glioma PDCs; format: cell-based, human
# Procedure: as §1
# [8] = read-out: % Inhibition, single replicates
compound,measurement,setting,value
"Nc1ccn([C@@H]2O[C@H](CO)[C@@H](O)[C@@H]2O)c(=O)n1 [Cytarabine, cytarabine]",Inhibitory Concentration IC75,[1],470 nM
same,Inhibitory Concentration IC25,[1],23 nM
same,inhibition at 3 µM,"[1]; Homo sapiens, drug alone 3 uM, read-out: inhibition of AML proliferation",99%
same,inhibition at 3 µM,"[1]; Homo sapiens, drug alone @ 3 uM, read-out: % Inhibition Avg",99%
same,inhibition at 3 µM,"[1]; Homo sapiens, drug alone @ 3 uM, read-out: % Inhibition n1",99%
same,inhibition at 3 µM,"[1]; Homo sapiens, drug alone @ 3 uM, read-out: % Inhibition n2",99%
same,inhibition at 3 µM,"[1]; Homo sapiens, drug alone @ 3 uM, read-out: % Inhibition n3",99%
same,IC50,[1]; Homo sapiens,104 nM
same,IC25,[2]; HL60 AML cells,298 nM
same,IC75,[2]; HL60 AML cells,1080 nM
same,inhibition at 3 µM,"[2]; Homo sapiens, HL-60",≥ 90%
same,IC50,"[2]; Homo sapiens, HL-60, dose-response curve, FIG. 35",567 nM
"CS(=O)(=O)N1CCN(Cc2cc3nc(-c4cccc5[nH]ncc45)nc(N4CCOCC4)c3s2)CC1 [GDC-0941, pictilisib]",inhibition at 10 µM,[3]; read-out: % Inhibition Avg,68%
same,inhibition at 10 µM,[3]; [8],70%
same,"% Inhibition, single replicates",[3]; 10 µM,67%
same,inhibition at 10 µM,"[1]; Homo sapiens, read-out: % Inhibition Avg",59%
same,inhibition at 10 µM,"[1]; Homo sapiens, read-out: % Inhibition n1",56%
same,inhibition at 10 µM,"[1]; Homo sapiens, read-out: % Inhibition n2",63%
same,inhibition at 10 µM,[4]; read-out: % Inhibition Avg,70%
same,inhibition at 10 µM,[4]; [8],71%
same,"% Inhibition, single replicates",[4]; 10 µM,69%
same,inhibition at 10 µM,[5]; read-out: % Inhibition Avg,100%
same,inhibition at 10 µM,[5]; read-out: % Inhibition n1,100%
same,inhibition at 10 µM,[5]; read-out: % Inhibition n2,100%
same,inhibition at 10 µM,[5]; read-out: % Inhibition n3,100%
same,inhibition at 10 µM,[6]; read-out: % Inhibition Avg,83%
same,inhibition at 10 µM,[6]; [8],84%
same,"% Inhibition, single replicates",[6]; 10 µM,82%
same,inhibition at 10 µM,"[7]; Homo sapiens, drug alone @ 10 uM, read-out: % Inhibition Avg",81%
same,inhibition at 10 µM,"[7]; Homo sapiens, drug alone @ 10 uM, read-out: % Inhibition, single replicates",83%
same,"% Inhibition, single replicates","[7]; drug alone @ 10 uM, 10 µM",79%
"Cn1nnc2c(C(N)=O)ncn2c1=O [Temozolomide, temozolomide]",inhibition at 100 µM,[5]; read-out: % Inhibition Avg,27%
same,inhibition at 100 µM,[5]; read-out: % Inhibition n1,41%
same,inhibition at 100 µM,[5]; read-out: % Inhibition n2,21%
same,inhibition at 100 µM,[5]; read-out: % Inhibition n3,18%
same,inhibition at 30 µM,"[7]; Homo sapiens, Temozolomide alone @ 30 uM",24%
same,inhibition at 100 µM,"[7]; Homo sapiens, Temozolomide alone @ 100 uM, read-out: % Inhibition Avg",32%
same,inhibition at 100 µM,"[7]; Homo sapiens, Temozolomide alone @ 100 uM, read-out: % Inhibition, single replicates",41%
same,inhibition at 300 µM,"[7]; Homo sapiens, Temozolomide alone @ 300 uM, read-out: % Inhibition Avg",19%
same,inhibition at 300 µM,"[7]; Homo sapiens, Temozolomide alone @ 300 uM, read-out: % Inhibition, single replicates",28%
same,"% Inhibition, single replicates","[7]; Temozolomide alone @ 30 uM, 30 µM",16% and 15%
same,"% Inhibition, single replicates","[7]; Temozolomide alone @ 100 uM, 100 µM",27% and 29%
same,"% Inhibition, single replicates","[7]; Temozolomide alone @ 300 uM, 300 µM",14% and 15%
arsenic trioxide,Inhibitory Concentration IC75,[1],6450 nM
same,Inhibitory Concentration IC25,[1],1380 nM
same,IC50,[1],2990 nM
same,inhibition of AML proliferation,[1]; drug alone 3 uM,97%
same,% Inhibition Avg,[1]; drug alone @ 3 uM,97%
same,% Inhibition n1,[1]; drug alone @ 3 uM,97%
same,% Inhibition n2,[1]; drug alone @ 3 uM,97%
same,% Inhibition n3,[1]; drug alone @ 3 uM,97%
same,IC50,[2]; HL60 AML cells,2430 nM
same,IC25,[2]; HL60 AML cells,1720 nM
same,IC75,[2]; HL60 AML cells,3010 nM
same,IC50,"[2]; dose-response curve, FIG. 35",2300 nM
